From PubChem BioAssay (NCI)
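A five-concentration, 48-hour dose response in 96-well plates underlies each endpoint, interpolated linearly between surrounding concentrations. Abbreviation: GI50, concentration required for 50% inhibition of growth. The concentration for full growth arrest is given as TGI.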

Key:
Experiment in all cases: NCI anticancer screen, dose series, 48 h
RXF 393 renal = system: RXF 393 renal
SK-OV-3 ovarian = system: SK-OV-3 ovarian
HT29 colon = system: HT29 colon
DU-145 prostate = system: DU-145 prostate
NCI-H522 lung = system: NCI-H522 lung
EKVX NSCLC = system: EKVX NSCLC
MDA-MB-231 breast = system: MDA-MB-231 breast
U251 CNS = system: U251 CNS
HOP-92 NSCLC = system: HOP-92 NSCLC
K-562 leukemia = system: K-562 leukemia
UO-31 renal = system: UO-31 renal
NCI/ADR-RES ovarian = system: NCI/ADR-RES ovarian
SF-295 CNS = system: SF-295 CNS
786-0 renal = system: 786-0 renal
HCC-2998 colon = system: HCC-2998 colon
TK-10 renal = system: TK-10 renal
A498 renal = system: A498 renal
SF-539 CNS = system: SF-539 CNS
SK-MEL-2 melanoma = system: SK-MEL-2 melanoma
SK-MEL-5 melanoma = system: SK-MEL-5 melanoma
HL-60(TB) leukemia = system: HL-60(TB) leukemia
OVCAR-3 ovarian = system: OVCAR-3 ovarian
OVCAR-8 ovarian = system: OVCAR-8 ovarian
UACC-257 melanoma = system: UACC-257 melanoma
NCI-H226 lung = system: NCI-H226 lung
LOX IMVI melanoma = system: LOX IMVI melanoma
MALME-3M melanoma = system: MALME-3M melanoma
HCT-116 colon = system: HCT-116 colon
HS 578T breast = system: HS 578T breast
HCT-15 colon = system: HCT-15 colon
OVCAR-5 ovarian = system: OVCAR-5 ovarian
NCI-H23 lung = system: NCI-H23 lung
SNB-19 CNS = system: SNB-19 CNS
OVCAR-4 ovarian = system: OVCAR-4 ovarian
SR leukemia = system: SR leukemia
CCRF-CEM leukemia = system: CCRF-CEM leukemia
UACC-62 melanoma = system: UACC-62 melanoma
SF-268 CNS = system: SF-268 CNS
SW-620 colon = system: SW-620 colon
T-47D breast = system: T-47D breast
SK-MEL-28 melanoma = system: SK-MEL-28 melanoma
SNB-75 CNS = system: SNB-75 CNS
PC-3 prostate = system: PC-3 prostate
ACHN renal = system: ACHN renal
A549 NSCLC = system: A549 NSCLC
MDA-MB-435 = system: MDA-MB-435
COLO 205 colon = system: COLO 205 colon
NCI-H460 lung = system: NCI-H460 lung
MCF7 breast = system: MCF7 breast
HOP-62 NSCLC = system: HOP-62 NSCLC
CAKI-1 renal = system: CAKI-1 renal
IGROV1 ovarian = system: IGROV1 ovarian
KM12 colon = system: KM12 colon
RPMI-8226 leukemia = system: RPMI-8226 leukemia
MOLT-4 leukemia = system: MOLT-4 leukemia
BT-549 breast = system: BT-549 breast
SN12C renal = system: SN12C renal
M14 melanoma = system: M14 melanoma

## CCN1C(C)(C)CC(Oc2ccc(C(=O)Nc3ccc(NC(=O)Nc4cc(C(C)(C)C)on4)cc3)nc2)CC1(C)C
RXF 393 renal
  GI50: 1.64 µM
  TGI: 3.36 µM
SK-OV-3 ovarian
  GI50: 6.03 µM
  TGI: 15.9 µM
HT29 colon
  GI50: 1.58 µM
  TGI: 3.86 µM
DU-145 prostate
  GI50: 1.87 µM
  TGI: 3.72 µM
NCI-H522 lung
  GI50: 1.82 µM
  TGI: 4.23 µM
EKVX NSCLC
  GI50: 3.6 µM
  TGI: 20.9 µM
MDA-MB-231 breast
  GI50: 2.02 µM
  TGI: 4.82 µM
U251 CNS
  GI50: 1.68 µM
  TGI: 3.58 µM
HOP-92 NSCLC
  GI50: 2.38 µM
  TGI: 8.09 µM
K-562 leukemia
  GI50: 1.69 µM
  TGI: 3.76 µM
UO-31 renal
  GI50: 1.67 µM
  TGI: 4.25 µM
NCI/ADR-RES ovarian
  GI50: 2.48 µM
  TGI: > 22.6 µM
SF-295 CNS
  GI50: 1.67 µM
  TGI: 3.27 µM
786-0 renal
  GI50: 1.66 µM
  TGI: 3.52 µM
HCC-2998 colon
  GI50: 1.9 µM
  TGI: 4.17 µM
TK-10 renal
  GI50: 5.49 µM
  TGI: 14 µM
A498 renal
  GI50: 1.95 µM
  TGI: 11.6 µM
SF-539 CNS
  GI50: 1.15 µM
  TGI: 2.62 µM
SK-MEL-2 melanoma
  GI50: 2.09 µM
  TGI: 4.89 µM
SK-MEL-5 melanoma
  GI50: 1.68 µM
  TGI: 3.22 µM
HL-60(TB) leukemia
  GI50: 2.02 µM
  TGI: 4.38 µM
OVCAR-3 ovarian
  GI50: 1.78 µM
  TGI: 3.86 µM
OVCAR-8 ovarian
  GI50: 2.29 µM
  TGI: 5.66 µM
UACC-257 melanoma
  GI50: 2.2 µM
  TGI: 4.02 µM
NCI-H226 lung
  GI50: 11.2 µM
  TGI: 30.7 µM
LOX IMVI melanoma
  GI50: 1.78 µM
  TGI: 3.31 µM
MALME-3M melanoma
  GI50: 1.61 µM
  TGI: 3.37 µM
HCT-116 colon
  GI50: 1.99 µM
  TGI: 3.68 µM
HS 578T breast
  GI50: 1.44 µM
  TGI: 6.06 µM
HCT-15 colon
  GI50: 1.71 µM
  TGI: 3.72 µM
OVCAR-5 ovarian
  GI50: 2.94 µM
  TGI: 11.4 µM
NCI-H23 lung
  GI50: 3.64 µM
  TGI: 20.1 µM
SNB-19 CNS
  GI50: 2.64 µM
  TGI: 11.2 µM
OVCAR-4 ovarian
  GI50: 5.23 µM
  TGI: 25.9 µM
SR leukemia
  GI50: 2.28 µM
  TGI: 4.91 µM
CCRF-CEM leukemia
  GI50: 2.85 µM
  TGI: 7.77 µM
UACC-62 melanoma
  GI50: 1.76 µM
  TGI: 3.51 µM
SF-268 CNS
  GI50: 2.39 µM
  TGI: 7.71 µM
SW-620 colon
  GI50: 2.1 µM
  TGI: 4.37 µM
T-47D breast
  GI50: 2.34 µM
  TGI: 7.2 µM
SK-MEL-28 melanoma
  GI50: 1.8 µM
  TGI: 3.63 µM
SNB-75 CNS
  GI50: 1.35 µM
  TGI: 3.44 µM
PC-3 prostate
  GI50: 2.88 µM
  TGI: 8.82 µM
ACHN renal
  GI50: 2.05 µM
  TGI: 4.37 µM
A549 NSCLC
  GI50: 2.71 µM
  TGI: 7.4 µM
MDA-MB-435
  GI50: 1.82 µM
  TGI: 3.47 µM
COLO 205 colon
  GI50: 1.83 µM
  TGI: 3.82 µM
NCI-H460 lung
  GI50: 1.89 µM
  TGI: 3.69 µM
MCF7 breast
  GI50: 2.14 µM
  TGI: 5.55 µM
HOP-62 NSCLC
  GI50: 1.67 µM
  TGI: 3.87 µM
CAKI-1 renal
  GI50: 1.98 µM
  TGI: 5.35 µM
IGROV1 ovarian
  GI50: 6.86 µM
  TGI: 47.5 µM
KM12 colon
  GI50: 2.91 µM
  TGI: 9.35 µM
RPMI-8226 leukemia
  GI50: 1.96 µM
  TGI: 4.72 µM
MOLT-4 leukemia
  GI50: 1.93 µM
  TGI: 5.24 µM
BT-549 breast
  GI50: 4.53 µM
  TGI: 10.3 µM
SN12C renal
  GI50: 1.66 µM
  TGI: 3.4 µM
M14 melanoma
  GI50: 1.91 µM
  TGI: 3.63 µM
